# Key:
# [1] = target: Histone Deacetylase 4 (HDAC4) catalytic domain (Homo sapiens (Human), UniProt P56524); experiment: Biochemical HDAC inhibition assay, fluorogenic substrate Boc-Lys(Tfa)-AMC
# Description: The potency of compounds is quantified by measuring the Histone Deacetylase 4 (HDAC4) catalytic domain enzymatic activity using the fluorogenic substrate, Boc-Lys(Tfa)-AMC. The substrate is deacetylated to Boc-Lys-AMC by HDAC4. Cleavage by trypsin results in the release of the fluorophore AMC from the deacetylated substrate. The fluorescence of the sample is directly related to the histone deacetylase activity in the sample.
# Stocks of 60 μL aliquots of the 10 mM compound in DMSO are prepared and stored at −20° C. From one stock aliquot of each compound to be tested and the reference compound, a 16-point serial dilution is prepared according to Table 1 using a 125 μL 16-channel Matrix multi-channel pipette (Matrix Technologies Ltd).
# 2 μL (200×) of each diluted solution and each control (full activity: 100% DMSO alone or full inhibition 1 mM) is stamped into V-bottomed polypropylene 384-well compound plates using either the Bravo (384-well head from Agilent) or 12.5 μL 16-channel Matrix multi-channel pipette (Matrix Technologies Ltd). Each well with the 200× compound solution is diluted 1:20 by the addition of 38 μL assay buffer+DMSO (10.5% DMSO, 45 mM Tris-HCl, 123 mM NaCl, 2.4 mM KCl, and 0.9 mM MgCl2 at pH 8.0 and equilibrated to room temperature).
# The HDAC4 catalytic domain enzyme is human catalytic domain HDAC4 protein (amino acids 648-1032) with a C-terminal 6× histidine tag, produced by BioFocus. A working solution of enzyme is prepared from a 500 μg/mL stock aliquot of HDAC4 catalytic domain (thawed on ice) diluted to 0.2 μg/mL with assay buffer (50 mM Tris-HCl, 137 mM NaCl, 2.7 mM KCl, and 1 mM MgCl2 at pH 8 and equilibrated to room temperature) just prior to the addition of the enzyme to the assay.
# 5× (50 μM) substrate is prepared just prior to the addition to the assay. A 1 mM substrate stock is made by diluting a 100 mM Boc-Lys(Tfa)-AMC in DMSO solution 1:100 by adding it drop-wise to assay buffer (equilibrated to room temperature) while vortexing at slow speed to prevent precipitation. The 5× substrate is prepared by diluting the 1 mM substrate solution 1:20 by adding it drop-wise to assay buffer (equilibrated to room temperature) while vortexing at slow speed to prevent precipitation.
# 3× (30 μM) Developer/Stop Solution is prepared just prior to addition to the plate by diluting a stock solution of 10 mM reference compound 1:333 in 25 mg/mL trypsin (PAA Laboratories Ltd.) equilibrated to room temperature.
# 5 μL of each solution of 1:20 diluted compound from above is transferred to a clear bottomed, black, 384-well assay plate using the Bravo or the Janus (384-well MDT head from Perkin Elmer). Using a 16-channel Matrix multi-channel pipette, 35 μL of the working solution of HDAC4 catalytic domain enzyme (0.2 μg/mL in assay buffer) is transferred to the assay plate. […] The assay plate is then shaken for two minutes on an orbital shaker at 900 rpm (rotations per minute). Next the plate is incubated for 15 minutes at 37° C. The reaction is stopped by adding 25 μL of 3× (30 μM) developer/stop solution to the assay plates using either the Bravo, Janus or a 16-channel Matrix multi-channel pipette. Assay plates are then shaken for 5 minutes on an orbital shaker at 1200 rpm. Next, the assay plates are incubated at 37° C. for 1 hour in a tissue culture incubator. Finally, the fluorescence is measured (Excitation: 355 nm, Emission: 460 nm) using PerkinElmer EnVision in top read mode.
# [2] = tested on: cellular histone deacetylase enzymatic activity in Jurkat E6-1 cells; experiment: Inhibition of cellular HDAC activity, Boc-Lys(Tfa)-AMC substrate (Cell Lys-TFA); format: cell-based
# Summary of the method: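 Jurkat E6-1 cells (75,000/well) were treated with a 16-point compound dilution for 2 h at 37 °C, then exposed to Boc-Lys(Tfa)-AMC for 3 h. Lysis buffer containing trypsin was added overnight (15-16 h), and AMC fluorescence was read at Ex 355/Em 460 nm.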
# [3] = tested on: cellular histone deacetylase activity (Lys-Ac); experiment: Inhibition of cellular HDAC activity (Cell Lys-Ac); format: cell-based; settings: Lys-Ac substrate
# [4] = Homo sapiens, Jurkat E6.1, Lys-TFA substrate
# Histone Deacetylase 4 (HDAC4) catalytic domain, sequence (P56524 648-1032): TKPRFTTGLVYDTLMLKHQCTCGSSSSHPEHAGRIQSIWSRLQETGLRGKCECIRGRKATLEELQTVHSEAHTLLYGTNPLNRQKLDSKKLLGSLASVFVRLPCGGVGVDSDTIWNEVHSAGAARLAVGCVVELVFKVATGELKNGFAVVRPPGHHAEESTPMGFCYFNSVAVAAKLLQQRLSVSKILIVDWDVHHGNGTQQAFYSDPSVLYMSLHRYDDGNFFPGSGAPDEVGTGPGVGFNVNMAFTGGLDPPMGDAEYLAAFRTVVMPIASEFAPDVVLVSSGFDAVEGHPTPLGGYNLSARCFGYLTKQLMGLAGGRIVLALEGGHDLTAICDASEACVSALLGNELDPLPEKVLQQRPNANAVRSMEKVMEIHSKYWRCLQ
smiles,measurement,setting,value
"Cc1c(F)cccc1[C@]1(C(=O)NO)Cc2cn(-c3ccc(OC(F)F)cc3)nc2C1 [Example 21, (S)-2-(4-(difluoromethoxy)phenyl)-5-(3-fluoro-2-methylphenyl)-N-hydroxy-2,4,5,6-tetrahydrocyclopenta[c]pyrazole-5-carboxamide]",IC50,[1],147 nM
same,IC50,[2]; [4],175 nM
same,IC50,[3],> 50000 nM
"Cc1cccc(-n2ncc3c2C[C@](C(=O)NO)(c2cccc(F)c2C)C3)c1 [Example 24, (S)-5-(3-Fluoro-2-methylphenyl)-N-hydroxy-1-(m-tolyl)-1,4,5,6-tetrahydrocyclopenta[c]pyrazole-5-carboxamide]",IC50,[1],28 nM
same,IC50,[2]; [4],64 nM
same,IC50,[3],> 50000 nM
"Cc1cccc(-n2cc3c(n2)C[C@](C(=O)NO)(c2cccc(F)c2C)C3)c1 [Example 25, (S)-5-(3-fluoro-2-methylphenyl)-N-hydroxy-2-(m-tolyl)-2,4,5,6-tetrahydrocyclopenta[c]pyrazole-5-carboxamide]",IC50,[1],76 nM
same,IC50,[2]; [4],160 nM
same,IC50,[3],> 50000 nM
"Cc1cnccc1-n1ncc2c1C[C@](C(=O)NO)(c1cccc(F)c1C)C2 [Example 26, (S)-5-(3-Fluoro-2-methylphenyl)-N-hydroxy-1-(3-methylpyridin-4-yl)-1,4,5,6-tetrahydrocyclopenta[c]pyrazole-5-carboxamide]",IC50,[1],57 nM
same,IC50,[2]; [4],71 nM
same,IC50,[3],> 50000 nM
"Cc1cnccc1-n1cc2c(n1)C[C@](C(=O)NO)(c1cccc(F)c1C)C2 [Example 27, (S)-5-(3-fluoro-2-methylphenyl)-N-hydroxy-2-(3-methylpyridin-4-yl)-2,4,5,6-tetrahydrocyclopenta[c]pyrazole-5-carboxamide]",IC50,[1],53 nM
same,IC50,[2]; [4],116 nM
same,IC50,[3],> 50000 nM
"Cc1c(F)cccc1[C@]1(C(=O)NO)Cc2cn(-c3ncccc3Cl)nc2C1 [Example 28, (S)-2-(3-Chloropyridin-2-yl)-5-(3-fluoro-2-methylphenyl)-N-hydroxy-2,4,5,6-tetrahydrocyclopenta[c]pyrazole-5-carboxamide]",IC50,[1],65 nM
same,IC50,[2]; [4],69 nM
same,IC50,[3],> 50000 nM
"Cc1c(F)cccc1[C@]1(C(=O)NO)Cc2cn(-c3ncccc3F)nc2C1 [Example 29, (S)-5-(3-Fluoro-2-methylphenyl)-2-(3-fluoropyridin-2-yl)-N-hydroxy-2,4,5,6-tetrahydrocyclopenta[c]pyrazole-5-carboxamide]",IC50,[1],104 nM
same,IC50,[2]; [4],69 nM
same,IC50,[3],> 50000 nM
"Cc1c(F)cccc1[C@@]1(C(=O)NO)Cc2cnn(-c3ccccc3)c2C1 [Example 30, (R)-5-(3-Fluoro-2-methylphenyl)-N-hydroxy-1-phenyl-1,4,5,6-tetrahydrocyclopenta[c]pyrazole-5-carboxamide]",IC50,[1],1000 nM
same,IC50,[2]; [4],1700 nM
same,IC50,[3],> 50000 nM
"Cc1c(F)cccc1C1(C(=O)NO)CCc2nn(Cc3ccc(F)cc3)cc2C1 (stereo not drawn) [Example 36, 5-(3-Fluoro-2-methylphenyl)-1-(4-fluorobenzyl)-N-hydroxy-4,5,6,7-tetrahydro-1H-indazole-5-carboxamide and 5-(3-fluoro-2-methylphenyl)-2-(4-fluorobenzyl)-N-hydroxy-4,5,6,7-tetrahydro-2H-indazole-5-carboxamide]",IC50,[1],600 nM
same,IC50,[2]; Lys-TFA substrate,370 nM
same,IC50,[3],> 50000 nM
"Cc1c(F)cccc1C1(C(=O)NO)CCc2nn(CC(F)(F)F)c(C3CC3)c2C1 (stereo not drawn) [Example 39, 3-Cyclopropyl-5-(3-fluoro-2-methylphenyl)-N-hydroxy-2-(2,2,2-trifluoroethyl)-4,5,6,7-tetrahydro-2H-indazole-5-carboxamide]",IC50,[1],4400 nM
same,IC50,[2]; [4],1800 nM
same,IC50,[3],> 50000 nM
"Cc1c(F)cccc1C1(C(=O)NO)CCc2nc(C3CC3)[nH]c(=O)c2C1 (stereo not drawn) [Example 40, 2-Cyclopropyl-6-(3-fluoro-2-methylphenyl)-N-hydroxy-4-oxo-3,4,5,6,7,8-hexahydroquinazoline-6-carboxamide]",IC50,[1],1600 nM
same,IC50,[2]; [4],580 nM
same,IC50,[3],> 50000 nM
"Cc1c(F)cccc1C1(C(=O)NO)CCc2nc(NS(=O)(=O)c3ccccc3)sc2C1 (stereo not drawn) [Example 41, 6-(3-Fluoro-2-methylphenyl)-N-hydroxy-2-(phenylsulfonamido)-4,5,6,7-tetrahydrobenzo[d]thiazole-6-carboxamide]",IC50,[1],190 nM
same,IC50,[2]; [4],1600 nM
same,IC50,[3],> 50000 nM
"Cc1c(F)cccc1C1(C(=O)NO)CCc2nc(C3CC3)sc2C1 (stereo not drawn) [Example 42, 2-Cyclopropyl-6-(3-fluoro-2-methylphenyl)-N-hydroxy-4,5,6,7-tetrahydrobenzo[d]thiazole-6-carboxamide]",IC50,[1],770 nM
same,IC50,[2]; [4],320 nM
same,IC50,[3],> 50000 nM
"Cc1c(F)cccc1C1(C(=O)NO)CCc2nc(-c3cncnc3)sc2C1 (stereo not drawn) [Example 43, 6-(3-Fluoro-2-methylphenyl)-N-hydroxy-2-(pyrimidin-5-yl)-4,5,6,7-tetrahydrobenzo[d]thiazole-6-carboxamide]",IC50,[1],1900 nM
same,IC50,[2]; [4],660 nM
same,IC50,[3],> 50000 nM
"Cc1c(F)cccc1C1(C(=O)NO)CCc2ncsc2C1 (stereo not drawn) [Example 44, 6-(3-Fluoro-2-methylphenyl)-N-hydroxy-4,5,6,7-tetrahydrobenzo[d]thiazole-6-carboxamide]",IC50,[1],1000 nM
same,IC50,[2]; [4],1500 nM
same,IC50,[3],> 50000 nM
"Cc1c(F)cccc1C1(C(=O)NO)CCc2ncncc2C1 (stereo not drawn) [Example 45, 6-(3-Fluoro-2-methylphenyl)-N-hydroxy-5,6,7,8-tetrahydroquinazoline-6-carboxamide]",IC50,[1],3700 nM
same,IC50,[2]; [4],2600 nM
same,IC50,[3],> 50000 nM
"Cc1c(F)cccc1C1(C(=O)NO)CCc2nc(C3CC3)ncc2C1 (stereo not drawn) [Example 46, 2-Cyclopropyl-6-(3-fluoro-2-methylphenyl)-N-hydroxy-5,6,7,8-tetrahydroquinazoline-6-carboxamide]",IC50,[1],1600 nM
same,IC50,[2]; [4],760 nM
same,IC50,[3],> 50000 nM
"Cc1c(F)cccc1C1(C(=O)NO)CCc2nc(-c3ccccc3)ncc2C1 (stereo not drawn) [Example 47, 6-(3-Fluoro-2-methylphenyl)-N-hydroxy-2-phenyl-5,6,7,8-tetrahydroquinazoline-6-carboxamide]",IC50,[1],3200 nM
same,IC50,[2]; [4],1100 nM
same,IC50,[3],> 50000 nM
"Cc1c(F)cccc1[C@]1(C(=O)NO)Cc2cnc(-c3ccccc3Cl)nc2C1 [Example 48, (S)-2-(2-Chlorophenyl)-6-(3-fluoro-2-methylphenyl)-N-hydroxy-6,7-dihydro-5H-cyclopenta[d]pyrimidine-6-carboxamide]",IC50,[1],156 nM
same,IC50,[2]; [4],60 nM
same,IC50,[3],> 50000 nM
"Cc1c(F)cccc1[C@]1(C(=O)NO)CCc2nc(-c3ccccc3Cl)ncc21 [Example 49, (R)-2-(2-chlorophenyl)-5-(3-fluoro-2-methylphenyl)-N-hydroxy-6,7-dihydro-5H-cyclopenta[d]pyrimidine-5-carboxamide]",IC50,[1],102 nM
same,IC50,[2]; [4],250 nM
same,IC50,[3],> 50000 nM
"Cc1c(F)cccc1[C@]1(C(=O)NO)Cc2cnn(C(C)C)c2C1 [Example 53, (S)-5-(3-Fluoro-2-methylphenyl)-N-hydroxy-1-isopropyl-1,4,5,6-tetrahydrocyclopenta[c]pyrazole-5-carboxamide]",IC50,[1],67 nM
same,IC50,[2]; [4],230 nM
same,IC50,[3],> 50000 nM
"Cc1c(F)cccc1[C@]1(C(=O)NO)Cc2cnc(C(F)(F)F)nc2C1 [Example 56, (S)-6-(3-Fluoro-2-methylphenyl)-N-hydroxy-2-(trifluoromethyl)-6,7-dihydro-5H-cyclopenta[d]pyrimidine-6-carboxamide]",IC50,[1],880 nM
same,IC50,[2]; [4],1800 nM
same,IC50,[3],> 50000 nM
